Test results from PubChem BioAssay AID1159560 (GlaxoSmithKline (GSK), 2015).
Active and inactive are the calls of the source. No rule for the calls is given here.

The compounds below were run on Leishmania donovani growth inhibition (assay: antileishmanial activity against L. donovani parasites (AID 1159560);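 also: parasites exposed to compound for 72 h before the viability read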).

| SMILES | IC50 |
| --- | --- |
| OC1CCC(Nc2nccc(-c3sc(C4CCOCC4)nc3-c3ccc(F)c(F)c3)n2)CC1 (stereo unspecified) | 3.2 µM |
| COc1ccc(Nc2nc(-c3ccccn3)cc(N3CCCC(O)C3)n2)cc1 (stereo unspecified) | 2.5 µM |
| COc1ccc2nccc(NC(=O)C3(OC)CCN(CC(O)c4ccc5c(c4)OCCO5)CC3)c2n1 (stereo unspecified) | 10 µM |
| Cc1ccc(NC(=O)c2ccnc(N3CCCC3)c2)cc1-c1cc(C(N)=O)ccc1C | 25 µM |
| Cc1cc(C)nc(N2CCC(N(Cc3cccnc3)C(=O)c3cccc(C#N)c3)CC2)n1 | 5 µM |
| O=C(NCC1CCCCC1)c1cc(=O)c2ccccc2o1 | 5 µM |
| CCCc1nc2nc(N)nc(N)c2cc1CC | 2 µM |
| CC(C)c1nn(-c2nc(N)nc(-c3ccccn3)n2)c(N)c1C1CCCCC1 | 7.9 µM |
| CCc1cccc(-n2nc(OCC(=O)NC3CCCC3)c3cccnc32)c1 | 2.5 µM |
| O=C(Nc1ccc(C(=O)N2CCCC2c2ccc3c(c2)OCCCO3)cc1)c1ccco1 (stereo unspecified) | 0.79 µM |
| CNc1cc(Cn2c(C(=O)c3cc(C)cc(Cl)c3)c(C(C)C)c(=O)[nH]c2=O)ccn1 | > 50 µM (inactive) |
| CCC(=O)Nc1ccc(C(=O)Nc2ccccc2-c2ccccc2)cc1 | 10 µM |
| COc1ccc2ncc(Cl)c(CCN3CC[C@H](NCc4cc5c(cn4)OCS5)[C@@H](O)C3)c2n1 | 2 µM |
| O=C(Nc1nc2ccccc2[nH]1)c1ccc2nc[nH]c2c1 | 2.5 µM |
| C=CCn1nc([N+](=O)[O-])nc1Oc1ccc(Cl)cc1Cl | > 50 µM (inactive) |
| Cc1[nH]nc2c1C(c1ccc(OCc3ccccc3F)cc1)SCC(=O)N2 (stereo unspecified) | 40 µM |
| COc1cc(-c2nc(N3CCOCC3)sc2-c2ccnc(NC3CCOCC3)n2)ccc1Cl | > 50 µM (inactive) |
| N#Cc1cccc(Nc2nccc(N3CCC(NS(=O)(=O)c4cccc(C#N)c4)CC3)n2)c1 | 0.63 µM |
| COc1ccc(CN(C)Cc2ccncc2)cc1-c1ccc(S(=O)(=O)NC2CCC2)s1 | 40 µM |
| CCOc1ccc(Nc2ccc(S(=O)(=O)N3CCN(C)CC3)cc2[N+](=O)[O-])cc1OCC | 0.79 µM |
| O=C(c1cccc(Cl)c1Cl)N1CCn2c1nc(-c1ccncc1)cc2=O | 50 µM |
| Cc1cn[nH]c1C1CCCN(Cc2nc3ccccc3n2C)C1 (stereo unspecified) | 16 µM |
| COc1ccc(C(=O)N2CCC(Nc3cccnc3)C2)c(OC)n1 (stereo unspecified) | 16 µM |
| COCCn1c(-c2ccccc2)cnc1NCc1ccccc1OC | > 50 µM (inactive) |
| CS(=O)(=O)N1CCC(Nc2ncc(Br)c(Nc3cccc(F)c3C(N)=O)n2)CC1 | 0.1 µM |
| COc1ccc(-c2cnc(NC(=O)c3cc(-c4ccccn4)n[nH]3)n2C)cc1 | 4 µM |

| SMILES | IC50 |
| --- | --- |
| COc1ccc(CNc2nsc3ccccc23)cc1OC | 3.2 µM |
| O=C(c1cnn(-c2ccccc2)n1)N1CCCC(n2ccnc2)C1 (stereo unspecified) | 7.9 µM |
| COc1ccc(NS(=O)(=O)c2cc(NC(=O)Cc3ccc(C)cc3)ccc2N2CCOCC2)cc1 | 40 µM |
| COc1ccc(NS(=O)(=O)c2cc(NC(=O)c3ccc([N+](=O)[O-])s3)ccc2OC)cc1 | 0.5 µM |
| CCN(CC)c1nc(N(C)C)nc2c1CN(Cc1ccccc1)CC2 | 7.9 µM |
| O=C(Nc1nccs1)c1ccccc1Cn1cc([N+](=O)[O-])cn1 | > 50 µM (inactive) |
| CCCC(=O)N(Cc1ccccn1)c1nc2ccccc2s1 | 7.9 µM |
| Cc1ccc(-c2csc(NC(=O)C=Cc3ccc(S(=O)(=O)N4CCOCC4)cc3)n2)o1 | 6.3 µM |
| Cc1cc(NC(=O)c2ccc([N+](=O)[O-])s2)ccc1Br | 3.2 µM |
| O=C(NCCc1ccccn1)C(c1cn[nH]c1)N1CCN(c2ccc(Cl)c(Cl)c2)CC1 (stereo unspecified) | 2.5 µM |
| Cc1nc(C(=O)Nc2ccc3c(c2)OCO3)nn1-c1ccc(F)cc1 | 2 µM |
| O=C(Nc1cccc(Cl)c1)N1CCCCC1c1cccnc1 (stereo unspecified) | 3.2 µM |
| Cc1ccc2sc(NC(=O)Cn3cnc([N+](=O)[O-])n3)nc2c1 | > 50 µM (inactive) |
| c1ccc(Nc2nc(-c3ccccn3)cc(N3CCOCC3)n2)cc1 | 6.3 µM |
| CCOc1ccc(OCC(=O)N2c3ccccc3CC2C(=O)NC)cc1 (stereo unspecified) | > 50 µM (inactive) |
| NC(=O)c1ccc(-c2cccc(OCCN3CCN(C4CCCCC4)CC3)c2)cc1 | > 50 µM (inactive) |
| N#Cc1nc(C=Cc2ccccc2)oc1NCc1cccnc1 | 25 µM |
| Cc1cc2nc(N3CC[C@H]3C(N)=O)nc(Nc3cc(C4CC4)[nH]n3)c2s1 | 0.79 µM |
| N#Cc1cccc(CNc2ccc(-c3cnn(CC4CC4)c(=O)c3C#N)cc2)c1 | 25 µM |
| Cn1nccc1NC(=O)Cn1ccc(-c2ccncc2)n1 | > 50 µM (inactive) |
| Cn1nc([N+](=O)[O-])nc1N1CCCCC1 | > 50 µM (inactive) |
| Cc1ccc(NC(=O)c2ccnc(N3CCCC3)c2)cc1-c1ccsc1C(N)=O | > 50 µM (inactive) |
| COc1ccc(NS(=O)(=O)c2cc(-c3cc(C)[nH]n3)ccc2C)cc1OC | 1 µM |
| CN(Cc1nc2ccc(C(=O)NCC3CCCCC3)cc2[nH]1)C1CCCc2cccnc21 (stereo unspecified) | 3.2 µM |
| CC(C)c1cc(Nc2cc(Cc3ccccc3)nc(NC3CCC(O)CC3)n2)n[nH]1 (stereo unspecified) | 3.2 µM |
| N#Cc1ccc(C(=O)Nc2cccc(-c3cccc(CN4CCC(O)CC4)c3)c2)cc1 | > 50 µM (inactive) |

| SMILES | IC50 |
| --- | --- |
| COc1ccc(C2=NCC(CSc3nnc(-c4ccc5c(c4)OCO5)o3)S2)cc1 (stereo unspecified) | 1 µM |
| COc1ccc(Nc2nccc(N(C)c3n[nH]c4c(F)cccc34)n2)cc1S(C)(=O)=O | 25 µM |
| O=C(NCC1CCCCN1C(=O)c1cccc2ccccc12)c1ccccc1 (stereo unspecified) | > 50 µM (inactive) |
| Nc1ncnc2c1ncn2[C@@H]1O[C@H](CO)C[C@H]1O | > 50 µM (inactive) |
| Cc1ccc(S(=O)(=O)Nc2ccc(CN3CCN(C(=O)c4cccc(C#N)c4)CC3)cc2)cc1 | 10 µM |
| CNc1cncc(C2CCCN2C(=O)Cc2ccc3ccccc3c2)n1 (stereo unspecified) | > 50 µM (inactive) |
| COc1ccc(Cc2nc(-c3ncc4cccnc4c3O)n[nH]2)cc1OC | 0.32 µM |
| CCCCc1cc(Nc2cc(C3CCC3)[nH]n2)nc(N2CCC2C(N)=O)n1 (stereo unspecified) | 4 µM |
| CN(Cc1ccc(F)cc1)c1ccc(OCC(=O)N2CCCCC2c2cccnc2)nn1 (stereo unspecified) | 16 µM |
| CN1C(=O)c2ccccc2Sc2ccc(NC(=O)NCc3ccco3)cc21 | > 50 µM (inactive) |
| c1cncc(CN(Cc2ccco2)Cc2cn[nH]c2-c2cccs2)c1 | 32 µM |
| COc1ccc(-c2ccc3nnc(-c4ccc(O)c(OC)c4)n3c2)cn1 | 4 µM |
| O=C(NCCc1ccn(-c2ccccc2)n1)C1CCCCC1 | > 50 µM (inactive) |
| CNS(=O)(=O)c1ccccc1Nc1nc(Nc2cc(C)nn2C)ncc1Cl | 0.25 µM |
| NS(=O)(=O)c1ccc(CNC(=O)c2ccc([N+](=O)[O-])s2)cc1 | 32 µM |
| COc1ccc(C)cc1-c1csc(NC(=O)C(C)n2ccnc2)n1 (stereo unspecified) | 3.2 µM |
| C[C@@H](Oc1cc(-n2cnc3ccc(O[C@H]4CCNC4)cc32)sc1C(N)=O)c1ccccc1Cl | > 50 µM (inactive) |
| Cc1ccc(S(C)(=O)=O)cc1Nc1nccc(-c2sc(N)nc2-c2ccccc2)n1 | 3.2 µM |
| CC(C)Nc1nc(Cl)nc2ccccc12 | 20 µM |
| COc1ccc2ncc(=O)n(CCN3CC[C@H](NCc4ncc(Cl)c5[nH]ncc45)[C@H](O)C3)c2n1 | > 50 µM (inactive) |
| O=C(NC(CO)c1ccc(F)cc1)c1ccc(-c2c[nH]c3ncccc23)s1 (stereo unspecified) | 32 µM |
| CN(C)Cc1ccc(N2CCC(NS(=O)(=O)c3ccc(Cl)cc3)CC2)cc1 | 40 µM |
| Fc1ccccc1N1C[C@H]2CCN(c3cccnc3)C[C@H]2C1 | 13 µM |
| c1ccc2c(CCOc3nccnc3-c3ccncc3)c[nH]c2c1 | 5 µM |
